Experimental data: US8629169B2, “4-substituted-3-phenylsulfanylmethyl-bicyclo[3.1.0]hexane compounds as mGluR 2/3 antagonists” (Eli Lilly and Company, priority 2010, dated 2014)

Experiments:
mice = assay: mFST alone and in combination with SSRI; assay type: in vivo, mouse; conditions: Example 12 10 mg/kg p.o.
male Wistar rats = assay: Wakefulness and behavioral monitoring in rats (EEG/EMG/LMA); assay type: in vivo; conditions: rat; for Locomotor Activity Intensity, mean difference from vehicle controls: averaged over the first 7 hr post-treatment; for Cumulative Time Awake 8-19 hours, mean difference from vehicle controls: rebound hypersomnolence measure
Procedure: Representative compounds of the present invention are tested in rats for their ability to increase the amount of time in a state of wakefulness without undesired effects such as inhibition of REM sleep, waking motor impairment (disproportionate hyper- or hypolocomotion), and/or rebound hypersomnia Test animals are continuously monitored by electro-encephalograms (EEG), electromyograms (EMG), and motion to measure cumulative time awake, rebound hypersomnia, and locomotor activity intensity during wakefulness. Methods for such studies are known in the art (see for example methods described in Edgar D M, Seidel W F. Modafinil induces wakefulness without intensifying motor activity or subsequent rebound hypersomnolence in the rat. J Pharmacology & Experimental Therapeutics 1997; 283: 757-769; van Gelder R N, Edgar D M, Dement W C. Real-time automated sleep scoring: validation of a microcomputer-based system for mice. Sleep 1991, 14: 48-55; and Gross B A, Walsh C M, Turakhia A A, Booth V, Mashour G A, Poe G R. Open-source logic-based automated sleep scoring software using electrophysiological recordings in rats. J Neurosci Methods. 2009; 184(1):10-8.) Studies are conducted as follows:
Adult, male Wistar rats (approximately 270-300 g at time of surgery) are surgically fitted for chronic recording of EEG, EMG, body temperature, and motion as follows: Rats are surgically prepared with a cranial implant consisting of four stainless steel screws for EEG recording (two frontal [3.9 mm anterior from bregma, and ±2.0 mm mediolaterally] and two occipital [6.4 mm posterior from bregma, ±5.5 mm mediolaterally]), and with two Teflon-coated stainless steel wires for EMG recording (positioned under the nuchal trapezoid muscles). All leads are soldered to a miniature connector (Microtech, Boothwyn, Pa.) prior to surgery. The implant assembly is affixed to the skull by the combination of the stainless steel EEG recording screws, cyanoacrylate applied between the implant connector and skull, and dental acrylic. Body temperature and locomotor activity is monitored via a miniature transmitter (Minimitter PDT4000G, Philips Respironics, Bend, Oreg.) surgically placed into the abdomen. At least 3 weeks are allowed for recovery.
Each rat is housed individually within a microisolator cage modified with an inserted polycarbonate filter-top riser to allow more vertical headroom. A flexible cable that minimally restricts movement is connected at one end to a commutator affixed to the cage top and at the other end to the animal's cranial implant. Each cage is located within separate, ventilated compartments of a stainless steel sleep-wake recording chamber. Food and water are available ad libitum and the ambient temperature is maintained at about 23±1° C. A 24-hr light-dark cycle (LD 12:12) using fluorescent light is maintained throughout the study. Relative humidity averages approximately 50%. Animals are undisturbed for at least 30 hrs before and after each treatment.
The vehicle or one of the compound dose levels is administered pseudo-randomly such that no rat receives the same treatment twice, and no rat receives more than two of the 8 treatments in any one study. Each rat is removed from its cage for about a minute to be weighed and treated. At least 6 days “washout” period precede and follow each treatment.
Sleep and wakefulness discrimination may be automated (e.g., Van Gelder et al. 1991; Edgar et al. 1997, Winrow et al., 2010; Gross et al., 2009).

male NIH-Swiss mice = assay: Forced-swim test in mice (mFST); assay type: in vivo, mouse; conditions: p.o.
[1] = Brain and plasma exposure levels in the SSRI combination study; conditions: combination with fluoxetine or citalopram versus alone
[2] = tested on: mGlu2+/+ and mGlu2−/− mice; assay: mFST in mGlu2 knock-out mice and +/+ littermates; conditions: 30 mg/kg, po, 120 min prior
Procedure: Briefly, male NIH-Swiss mice (Harlan Sprague-Dawley, Indianapolis, Ind.) weighing between 25-30 g are used. Group housed animals are removed from the vivarium to the testing area in their own cages and allowed to adapt to the new environment for at least 1 hour before testing. […] Mice are placed in a cylinder (diameter: 10 cm; height: 25 cm) filled with 6 cm of water (22-25° C.) for 6 min. The duration of immobility during the last 4 min. of the 6 min. period of the test was scored. A mouse is recorded as immobile when floating motionless or making only those movements necessary to keep its head above water.
In other experiments, mice with receptor deletions (mGlu2 knock-out mice) are studied; these mice are bred by heterozygote×heterozygote breeding and used as littermates for −/− and +/+ mouse comparisons (Taconic Farms).

[3] = citalopram experiment, citalopram 1 mg/kg i.p.
[4] = fluoxetine experiment, fluoxetine 10 mg/kg i.p.

In the case of CC(C)OC(=O)OCOC(=O)[C@H]1[C@@H]2[C@H](O)[C@@H](CSc3ccc(F)c(F)c3)[C@@](N)(C(=O)OCOC(=O)OC(C)C)[C@H]12.Cl [Example 12, Bis({[(1-methylethoxy)carbonyl]oxy}methyl)(1S,2R,3S,4S,5R,6R)-2-amino-3-{[(3,4-difluorophenyl)sulfanyl]methyl}-4-hydroxybicyclo[3.1.0]hexane-2,6-dicarboxylate hydrochloride], the “Immobilization Time” value (mice; [3]) is reported as 140 s, the “Maximal Decrease (1 − compound/control) * 100%” value (mice; [3]) is reported as 20.9% and the “Immobilization Time” value (mice; [4]) is reported as 130 s. The “Maximal Decrease (1 − compound/control) * 100%” value (mice; [4]) was 24.5%, the “Cumulative Time Awake first 7 hours, mean difference from vehicle controls” value (male Wistar rats; 10 mg/kg PO) was 40.2 min and the “Locomotor Activity Intensity, mean difference from vehicle controls” value (male Wistar rats; 10 mg/kg PO) was 4.5 counts of LMA per minute of EEG-defined wakefulness. For the same molecule, the “Cumulative Time Awake 8-19 hours, mean difference from vehicle controls” value (male Wistar rats; 10 mg/kg PO) was 12.1 min, the “Cumulative Time Awake first 7 hours, mean difference from vehicle controls” value (male Wistar rats; 30 mg/kg PO) was 109.3 min and the “Locomotor Activity Intensity, mean difference from vehicle controls” value (male Wistar rats; 30 mg/kg PO) was 3.0 counts of LMA per minute of EEG-defined wakefulness. The “Cumulative Time Awake 8-19 hours, mean difference from vehicle controls” value (male Wistar rats; 30 mg/kg PO) was -4.1 min, the “Cumulative Time Awake first 7 hours, mean difference from vehicle controls” value (male Wistar rats; 60 mg/kg PO) was 118.9 min and the “Locomotor Activity Intensity, mean difference from vehicle controls” value (male Wistar rats; 60 mg/kg PO) was 4.9 counts of LMA per minute of EEG-defined wakefulness. The “Cumulative Time Awake 8-19 hours, mean difference from vehicle controls” value (male Wistar rats; 60 mg/kg PO) was 2.7 min, the “ED60 (mg/kg)” value (male NIH-Swiss mice; immobility, last 4 min of 6 min) was 12.0 (p.o.) mg/kg and the “Maximal Decrease (1 − compound/control) * 100%” value (male NIH-Swiss mice; immobilization time) was 58.4%. The “brain and plasma levels of the active di-acid moiety” value [1] was “no increase in exposure levels” and the “immobility time in mGlu2+/+ mice” value [2] was “decrease immobility time”.
